Reference: ChEMBL document CHEMBL1201862, “PubChem BioAssay data set” (2004)
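Tested at 5 concentrations; 48 h exposure; 96-well plates; endpoints linearly interpolated, else capped at highest concentration. At the GI50, growth is halved.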 Calls of active or inactive are those of the source. Rule as the data show it: active = GI50 up to about 1.1 µM and inactive = higher.

Assays:
Experiment in all cases: growth of human tumour cells (NCI), 48 h
[1] = test system: NCI-H226
[2] = test system: Malme-3M
[3] = test system: MOLT-4
[4] = test system: SK-MEL-28
[5] = test system: IGROV-1
[6] = test system: SR
[7] = test system: HL-60
[8] = test system: UACC-257
[9] = test system: M14
[10] = test system: K562
[11] = test system: SNB-75
[12] = test system: RXF 393
[13] = test system: UO-31
[14] = test system: SNB-19
[15] = test system: NCI-H23
[16] = test system: UACC-62
[17] = test system: A498
[18] = test system: LOX IMVI

Measured: GI50

COC1OC(C)C(OC(=O)C(C)(C)C)C(OS(=O)(=O)c2ccc(C)cc2)C1OS(=O)(=O)c1ccc(C)cc1 (centres undefined)
inactive: [1] > 100 µM | [2] > 100 µM | [3] > 100 µM | [4] > 100 µM | [5] > 100 µM | [6] 15.4 µM | [7] > 100 µM | [8] > 100 µM | [9] > 100 µM | [10] > 100 µM | [11] 77.8 µM | [12] > 100 µM | [13] > 100 µM | [14] > 100 µM | [15] > 100 µM

NC(=O)N1N=C2c3ccccc3CC[C@@H]2C1c1ccccc1 (some centres undefined)
inactive: [16] > 100 µM | [1] > 100 µM | [17] > 100 µM | [2] > 100 µM | [3] 69 µM | [4] > 100 µM | [5] > 100 µM | [7] 42.9 µM | [18] > 100 µM | [8] > 100 µM | [9] > 100 µM | [10] 61.4 µM | [11] 36.6 µM | [12] > 100 µM | [13] > 100 µM | [14] > 100 µM | [15] > 100 µM

CN(C)C(=O)OC(Cn1cncn1)c1ccc(Cl)cc1Cl (centres undefined)
inactive: [16] > 100 µM | [1] > 100 µM | [17] > 100 µM | [2] > 100 µM | [3] > 100 µM | [4] > 100 µM | [5] > 100 µM | [7] > 100 µM | [18] > 100 µM | [8] > 100 µM | [9] > 100 µM | [10] > 100 µM | [11] > 100 µM | [12] > 100 µM | [13] > 100 µM | [14] > 100 µM | [15] > 100 µM

COc1ccc(/C=C2\CN(C)Cc3c2nc(N)nc3-c2ccc(OC)cc2)cc1
inactive: [16] 87.1 µM | [1] > 100 µM | [17] > 100 µM | [2] 34.4 µM | [3] 30.1 µM | [4] > 100 µM | [5] > 100 µM | [7] 28.7 µM | [18] 79.4 µM | [9] 69.3 µM | [10] 70.5 µM | [11] > 100 µM | [12] > 100 µM | [13] > 100 µM | [14] > 100 µM | [15] > 100 µM

CCOC(=O)/C(Br)=C1/OC(=O)c2ccccc2-c2ccccc21.CCOC(=O)/C(Br)=C1\OC(=O)c2ccccc2-c2ccccc21
inactive: [16] 15.4 µM | [1] 27.3 µM | [2] 17.7 µM | [3] 14.7 µM | [4] 18.6 µM | [5] 18.6 µM | [6] 16 µM | [7] 8.3 µM | [18] 16.5 µM | [8] 18.2 µM | [9] 17 µM | [10] 4.3 µM | [11] 25.2 µM | [13] 39.8 µM | [15] 21 µM

CCCC1(CC(=O)O)OCCc2c1[nH]c1ccccc21 (centres undefined) [PRODOLIC ACID]
inactive: [16] > 100 µM | [1] > 100 µM | [17] > 100 µM | [2] > 100 µM | [3] > 100 µM | [4] > 100 µM | [5] > 100 µM | [7] > 100 µM | [18] > 100 µM | [8] > 100 µM | [9] > 100 µM | [10] > 100 µM | [11] 69.3 µM | [12] > 100 µM | [13] > 100 µM | [14] > 100 µM | [15] > 100 µM

C[Si](C)(C)c1ccc(CC2(Cc3ccc([Si](C)(C)C)cc3)CCNC2)cc1
inactive: [16] 2.02 µM | [1] 1.88 µM | [17] 1.55 µM | [2] 3.95 µM | [4] 2.33 µM | [5] 2.58 µM | [7] 7.18 µM | [18] 1.8 µM | [8] 2.44 µM | [9] 1.76 µM | [10] 3.62 µM | [11] 3.24 µM | [12] 1.71 µM | [13] 2.48 µM | [14] 4 µM | [15] 1.97 µM

COc1cccc(C2=NC(C(C)C)CO2)c1 (centres undefined)
inactive: [16] > 100 µM | [1] > 100 µM | [17] > 100 µM | [2] > 100 µM | [3] > 100 µM | [4] > 100 µM | [5] > 100 µM | [7] > 100 µM | [18] > 100 µM | [8] > 100 µM | [9] > 100 µM | [10] > 100 µM | [11] > 100 µM | [12] > 100 µM | [13] 85.7 µM | [14] > 100 µM | [15] > 100 µM

COc1ccc(C2Oc3ccc(O)cc3[C@@H]2C)cc1OC (some centres undefined)
inactive: [16] > 100 µM | [1] > 100 µM | [2] > 100 µM | [3] 37.6 µM | [4] > 100 µM | [5] > 100 µM | [7] 34.3 µM | [18] > 100 µM | [8] > 100 µM | [9] > 100 µM | [10] > 100 µM | [11] 30.2 µM | [12] 58.5 µM | [13] 63.1 µM | [14] > 100 µM | [15] 94.6 µM

O=S(=O)(c1ccccc1)C1CN2OC1(S(=O)(=O)c1ccccc1)CC2c1ccc(Br)cc1 (centres undefined)
inactive: [16] > 100 µM | [1] > 100 µM | [17] 96.4 µM | [2] > 100 µM | [3] > 100 µM | [4] > 100 µM | [5] > 100 µM | [7] > 100 µM | [18] 92 µM | [8] 68.4 µM | [9] > 100 µM | [10] > 100 µM | [11] 5.21 µM | [12] 13.2 µM | [13] 37.9 µM | [14] 46.8 µM | [15] > 100 µM

COC1(C)CC2N(C(=O)c3ccccc3)N=C(c3ccccc3)CC2(C)O1 (centres undefined)
inactive: [16] 43.3 µM | [1] > 100 µM | [17] > 100 µM | [2] > 100 µM | [3] 61.7 µM | [5] > 100 µM | [7] > 100 µM | [18] > 100 µM | [8] > 100 µM | [9] > 100 µM | [10] 88.9 µM | [11] > 100 µM | [13] > 100 µM | [14] > 100 µM

CN(CC(=O)O)S(=O)(=O)c1ccc(Cl)cc1
inactive: [16] > 100 µM | [1] > 100 µM | [17] > 100 µM | [2] > 100 µM | [3] > 100 µM | [4] > 100 µM | [5] > 100 µM | [7] > 100 µM | [18] > 100 µM | [8] > 100 µM | [9] > 100 µM | [10] > 100 µM | [11] > 100 µM | [12] > 100 µM | [13] > 100 µM | [14] > 100 µM | [15] > 100 µM
